US8088791B2, “Antibacterial agents” (Biots Scientific Management Pty Ltd, priority 2006, dated 2012)
≈ marks a conversion by molar mass, not a printed value.

Test system: Bacillus subtilis 168CA
Assay: Minimum Inhibitory Concentration (MIC) testing, broth microdilution, Bacillus subtilis
Assay type: cell-based
Conditions: Bacillus subtilis 168CA; read-out: Bacillus subtilis MICs Activity
Method: Compounds of this invention were tested for antimicrobial activity by susceptibility testing in liquid media. MICs for compounds against each strain were determined by a broth microdilution method according to the National Committee for Clinical Laboratory Standards (NCCLS) guidelines. (NCCLS. 2000. Methods for dilution antimicrobial susceptibility tests for bacteria that grow aerobically—fifth edition. Approved standard M7-A5. NCCLS, Wayne, Pa.)
Briefly, test compounds are prepared in 100 μl of 1.6% DMSO solution in multiwell plates. Several bacterial colonies from a freshly streaked plate are transferred to an appropriate rich broth, such as Mueller Hinton. The cell suspension is adjusted to an optical density of 0.09 and further diluted 1:100 with warm 2× broth. This cell suspension is dispensed into the wells containing compound solution so that the final volume is 200 μl. The plates are incubated overnight (16-20 hours) at 37° C. and turbidity is scored by eye and quantified spectrophotometrically. The MIC is defined as the lowest concentration inhibiting visible growth.
Activities were scored as ‘A’ if the MIC was ≦8 micrograms/ml, ‘B’ if the MIC was 16 to 64 micrograms/ml and ‘C’ if the MIC was greater than 64 micrograms/ml.

Compound	MIC
NC(=O)c1cccc(OCCc2ccc(F)cc2)c1 [Example 34, 3-[(4-Fluorophenethyl)oxy]benzenecarboxamide]	16 to 64 µg/mL (≈ 61.7 to 247 µM)
CC(C)CCCCOc1cccc(C(N)=O)c1 [Example 22, 3-[(5-Methylhexyl)oxy]benzenecarboxamide]	16 to 64 µg/mL (≈ 68 to 272 µM)
NC(=O)c1cccc(OCCCCCc2ccccc2)c1 [Example 21, 3-[(5-Phenylpentyl)oxy]benzenecarboxamide]	16 to 64 µg/mL (≈ 56.5 to 226 µM)
NC(=O)c1c(F)ccc(OCc2nc(-c3cccc([N+](=O)[O-])c3)no2)c1F [Example 259, 2,6-Difluoro-3-[3-(3-nitrophenyl)-1,2,4-oxadiazol-5-yl]methoxybenzenecarboxamide]	< 8 µg/mL
CCOC(=O)CCCOc1cccc(C(N)=O)c1 [Example 25, Ethyl 4-[3-(aminocarbonyl)phenoxy]butanoate]	> 64 µg/mL
COc1cc(-c2noc(COc3ccc(F)c(C(N)=O)c3F)n2)ccc1OC(F)F [Example 328, 3-[3-(4-Difluoromethoxy-3-methoxy-phenyl)-[1,2,4]oxadiazol-5-ylmethoxy]-2,6-difluoro-benzamide]	< 8 µg/mL
NC(=O)c1c(F)ccc(OCc2cn3ccccc3n2)c1F [Example 203, 2,6-Difluoro-3-(imidazo[1,2-a]pyridin-2-ylmethoxy)benzenecarboxamide]	> 64 µg/mL
NC(=O)c1cccc(OCCCCC2CCCCC2)c1 [Example 44, 3-(4-Cyclohexylbutoxy)benzenecarboxamide]	< 8 µg/mL
NC(=O)c1c(F)ccc(OCc2nnc(-c3ccccc3)o2)c1F [Example 238, 2,6-Difluoro-3-[(5-phenyl-1,3,4-oxadiazol-2-yl)methoxy]benzenecarboxamide]	16 to 64 µg/mL (≈ 48.3 to 193 µM)
CCCCOc1cccc(C(N)=O)c1 [Example 7, 3-Butoxybenzenecarboxamide]	> 64 µg/mL
NC(=O)c1c(F)ccc(OCc2nc(COc3c(Cl)cccc3Cl)no2)c1F [Example 264, 3-(3-[(2,6-Dichlorophenoxy)methyl]-1,2,4-oxadiazol-5-ylmethoxy)-2,6-difluorobenzenecarboxamide]	16 to 64 µg/mL (≈ 37.2 to 149 µM)
C=CCOc1cccc(C(N)=O)c1 [Example 6, 3-(Allyloxy)benzenecarboxamide]	> 64 µg/mL
Cc1cccc2nc(COc3ccc(F)c(C(N)=O)c3F)ccc12 [Example 96, 2,6-Difluoro-3-(5-methyl-quinolin-2-ylmethoxy)-benzamide]	16 to 64 µg/mL (≈ 48.7 to 195 µM)
NC(=O)c1c(F)ccc(OCc2nc(-c3ccc(Cl)c([N+](=O)[O-])c3)no2)c1F [Example 329, 3-[3-(4-Chloro-3-nitro-phenyl)-[1,2,4]oxadiazol-5-ylmethoxy]-2,6-difluoro-benzamide]	< 8 µg/mL
CCCOc1cccc(C(N)=O)c1 [Example 2, 3-Propoxybenzenecarboxamide]	> 64 µg/mL
CCCCCCC#CCOc1cccc(C(N)=O)c1 [Example 50, 3-(2-Nonynyloxy)benzenecarboxamide]	< 8 µg/mL
NC(=O)c1cccc(OCCCCc2ccccc2)c1 [Example 20, 3-(4-Phenylbutoxy)benzenecarboxamide]	< 8 µg/mL
NC(=O)c1c(F)ccc(OCc2ccc3cccc(Cl)c3n2)c1F [Example 112, 3-(8-Chloro-quinolin-2-ylmethoxy)-2,6-difluoro-benzamide]	< 8 µg/mL
NC(=O)c1c(F)ccc(OCc2nc(-c3ccccc3O)no2)c1F [Example 253, 2,6-Difluoro-3-[3-(2-hydroxyphenyl)-1,2,4-oxadiazol-5-yl]methoxybenzenecarboxamide]	16 to 64 µg/mL (≈ 46.1 to 184 µM)
C=C(C)COc1cccc(C(N)=O)c1 [Example 11, 3-[(2-Methyl-2-propenyl)oxy]benzenecarboxamide]	> 64 µg/mL
CC(C)Oc1cccc(C(N)=O)c1 [Example 3, 3-Isopropoxybenzenecarboxamide]	> 64 µg/mL
CCOC(=O)CCCCCOc1cccc(C(N)=O)c1 [Example 37, Ethyl 6-[3-(aminocarbonyl)phenoxy]hexanoate]	> 64 µg/mL
NC(=O)c1cccc(OCc2ccc3ccccc3n2)c1 [Example 23, 3-(2-Quinolinylmethoxy)benzenecarboxamide]	16 to 64 µg/mL (≈ 57.5 to 230 µM)
